The target in assay [1] is Acetylcholinesterase (Electrophorus electricus) (UniProt O42275). In words: Inhibition of electric eel AChE at 350 […] by microplate assay.
The target is the same in assay [2]. In words: Inhibition of electric eel AChE assessed as purple zones of inhibition after 20 mins by TLC bioautography.

Acetylcholinesterase (Electrophorus electricus), sequence (O42275 24-633 limits assumed): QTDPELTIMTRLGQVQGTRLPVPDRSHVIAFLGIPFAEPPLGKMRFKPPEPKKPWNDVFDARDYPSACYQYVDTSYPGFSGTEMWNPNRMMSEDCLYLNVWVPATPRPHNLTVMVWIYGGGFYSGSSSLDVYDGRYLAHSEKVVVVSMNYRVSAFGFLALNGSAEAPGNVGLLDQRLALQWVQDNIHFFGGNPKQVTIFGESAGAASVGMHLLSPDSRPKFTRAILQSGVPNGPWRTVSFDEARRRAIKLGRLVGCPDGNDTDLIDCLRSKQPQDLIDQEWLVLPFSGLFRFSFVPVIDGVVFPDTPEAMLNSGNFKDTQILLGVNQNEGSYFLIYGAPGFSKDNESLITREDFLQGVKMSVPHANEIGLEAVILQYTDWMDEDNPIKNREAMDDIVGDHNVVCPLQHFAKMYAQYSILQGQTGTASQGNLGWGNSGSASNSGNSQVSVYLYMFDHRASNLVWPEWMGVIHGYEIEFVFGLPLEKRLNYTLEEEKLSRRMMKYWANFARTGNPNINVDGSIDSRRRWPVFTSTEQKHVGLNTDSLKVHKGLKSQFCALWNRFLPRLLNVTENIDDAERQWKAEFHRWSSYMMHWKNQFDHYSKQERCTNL

As to `CNC(=O)Oc1ccc2c(c1)[C@]1(C)CCN(C)[C@@H]1N2C`, in assay [1], the inhibition was determined as 87%. Moreover, the INH in assay [2] came out at 0.05 µg.
As for `CCCCCC(=O)CCCCCCc1ccc(O)c(C)n1`, the inhibition in assay [1] was determined as 13%. Besides, the INH in assay [2] stood at 0.75 µg.
Consider `C[C@@H]1O[C@@H](OC[C@H]2O[C@@H](Oc3c(-c4ccc(O)c(O)c4)oc4cc(O)cc(O)c4c3=O)[C@H](O)[C@@H](O)[C@@H]2O)[C@H](O)[C@H](O)[C@H]1O`, for which the INH in assay [2] is greater than 100 µg.
For `Cc1nc(CCCCCCC(=O)CCCCCO)ccc1O`, the inhibition in assay [1] stood at 30%. Besides, the INH in assay [2] came out at 0.18 µg.

The values are drawn from ChEMBL document CHEMBL1154827, “Acetylcholinesterase inhibitory pyridine alkaloids of the leaves of Senna multijuga” (J Nat Prod, 2010).
